Reference: US10092574B2, “Inhibitors of polynucleotide repeat-associated RNA foci and uses thereof” (VALORISATION-RECHERCHE, LIMITED PARTNERSHIP, priority 2013, dated 2018)

Assays:
Type in all cases: cell-based, human
[1] = test system: SERCA1 exon 22; assay: RT-PCR alternative splicing assay, SERCA1 exon 22; conditions: DM1 myoblasts, 20 μM, 7 days; WT 59%, DM1 less than 2% (FIG. 8B)
Description: (§1) Human myoblasts were obtained from the Myosix institute associated with the Association Frangaise contre les Myopathies (AFM). Five primary myoblast lines were obtained as controls, and one line from a DM1 patient with a 3.8 Kb CTG triplet amplification corresponding to approximately 1250 CTG repeats. The human myoblasts are cultivated in HAM-F10 media (SIGMA N6635) with 15% FBS, 1% chick embryo extract, and 390 ng/ml of dexamethasone. One day before adding compounds, 2×10^5 cells were plated in 100 mm plates (for CUGBP1 western blot or RT-PCR alternative splicing assay) or 2×10^4 cells/well are seeded in 12-well plates containing 12 mm round glass coverslips (for FISH to detect RNA foci). […]
(§2) For Western blots, CUGBP1 was detected with the 3B1-3D11 monoclonal antibody (mAb) (SIGMA C5112) and GAPDH was detected with the 6C5 mAb (Millipore MAB374). The enhanced chemiluminescence signal (ECL) was acquired and quantified with the ChemiDoc™ MP imaging system (Bio-Rad). […] The alternative splicing of the hnRNPA2/B1 transcript was detected with the primers 5′-[…]-3′ (SEQ ID NO:7) and 5′-[…]-3′ (SEQ ID NO:8). PCR was performed with Taq using standard conditions but the number of amplification cycles was optimized to be in the quantitative range for each gene. […]

[2] = test system: TNNT2 exon 5; assay: RT-PCR alternative splicing assay, TNNT2 exon 5; conditions: DM1 myoblasts, 20 μM, 7 days; from 90% (FIG. 8C)
Description: as §1, §2

[3] = test system: MBNL1 mRNA exon 7; assay: RT-PCR alternative splicing assay, MBNL1 exon 7; conditions: DM1 myoblasts, 5 to 60 μM, 7 days (FIG. 12B)

| Structure (SMILES) | inclusion of SERCA1 exon 22, of total transcripts [1] | inclusion of foetal TNNT2 exon 5, of total transcripts [2] | dose-response effect on splicing of MBNL1 mRNA [3] |
| --- | --- | --- | --- |
| CCCN(CCC)S(=O)(=O)c1ccc(NS(=O)(=O)Cc2ccccc2)cc1 [Compound 15] | 17% | 76% |  |
| CCCc1c(C(=O)N(Cc2ccccc2)Cc2cccs2)cnn1-c1ccccc1 [Compound 32] |  |  | clear dose-response effect |
